Common to all, as to assay type: in vivo
One assay relates to Myzus persicae. Put plainly: Activity against Myzus persicae (green peach aphid), pea seedling roots in test solution. The note with it: 144 h, test rate 100 ppm, 6 days after placing seedlings into test solutions. On the procedure: (§1) This test case is used to illustrate the insecticidal activity inhibition (%) of compounds with the structure shown in formula (I) (dosage of 100 ppm).
(§2) Roots of pea seedlings infested with an aphid population of mixed ages were placed directly into agueous test solutions prepared from […] stock solutions. The samples were assessed for mortality 6 days after placing seedlings into test solutions.

The subject of another assay is Plutella xylostella. The experiment in a line: Activity against Plutella xylostella, artificial diet in 24-well plates, L2 larvae. As to conditions: for percent effect (mortality or growth inhibition) at 100 ppm: Plutella xylostella, 120 h, application rate 100 ppm, 5 days after infestation, read-out: effect in at least one of the two categories (mortality or growth inhibition); for effect: application rate 4 ppm. As for the experimental part: (§3) 24-well microtiter plates with artificial diet were treated with agueous test solutions prepared from 10,000 ppm DMSO stock solutions by pipetting. After drying, the plates were infested with L2 larvae (10 to 15 per well). The samples were assessed for mortality and growth inhibition in comparison to untreated samples 5 days after infestation.

The test system of a further assay is Leucania separate. Put plainly: Activity against Leucania separate, sprayed maize sprouts, L2 larvae. As to conditions: 96 h; application rate 100 ppm; 4 days after infestation; read-out: effect in at least one of the two categories (mortality or growth inhibition). As for the experimental part:
as §1
Maize sprouts placed onto an agar layer in 24-well microtiter plates were treated with agueous test solutions prepared from 10,000 ppm DMSO stock solutions by spraying. After drying, the plates were infested with L2 larvae (6 to 10 per well). The samples were assessed for mortality and growth inhibition in comparison to untreated samples 4 days after infestation.

The test system of a further assay is Nilaparvata lugens. Put plainly: Activity against Nilaparvata lugens, sprayed leaf discs, adults. As to conditions: for mortality at 100 ppm: Nilaparvata lugens, foliar, 144 h, test rate 100 ppm, 6 days after incubation; for effect: application rate 45 ppm. On the procedure:
Cotton leaf discs were placed on agar in 24-well microtiter plates and sprayed with agueous test solutions prepared from 10,000 ppm DMSO stock solutions. After drying the leaf discs were infested with adult Nilaparvata lugens. The samples were checked for mortality 6 days after incubation.

The subject of a further assay is Aphis craccivora Koch. The experiment in a line: Activity against Aphis craccivora Koch, pea seedling roots in test solution. As to conditions: for mortality at 100 ppm: Aphis craccivora, 144 h, test rate 100 ppm, 6 days after placing seedlings into test solutions; for effect: application rate 4 ppm. On the procedure:
as §2

For another assay, the system named is Laphygma exigua. Put plainly: Activity against Laphygma exigua, artificial diet in 24-well plates, L2 larvae. As to conditions: application rate 4 ppm. As for the experimental part:
as §3

Another assay concerns Chilo suppressalis. Put plainly: Activity against Chilo suppressalis, soaked rice seedlings, L2 larvae. The note with it: application rate 5 ppm, after 96 hours, read-out: effect (mortality rates). As for the experimental part:
Take 5-6 rice seedlings, each 3-4 cm in height, soak them thoroughly in the prepared solution, After drying, the plates were infested with L2 larvae (10 per well). Keep them in an observation room for rearing and observation. Use 0.1% warm water as a blank control. Incubate them in an observation room at 25 to 27° C. After 96 hours, assess the samples based on mortality rates

By mortality is commonly meant the percentage killed. In the case of `CCS(=O)(=O)c1cc2nc(C)n(C)c2nc1-c1nc2cc(C(F)(F)F)cnc2n1C` [Compound I-2], the mortality at 100 ppm in the assay with Myzus persicae, with Nilaparvata lugens and in the assay with Aphis craccivora Koch was at least 90% each time. Also, the percent effect (mortality or growth inhibition) at 100 ppm in the assay with Plutella xylostella and in the assay with Leucania separate was at least 90% in each case.
For `CCS(=O)(=O)c1cc2nc(C(F)(F)F)sc2nc1-c1nc2cc(C(F)(F)F)cnc2n1C` [Compound I-100], the results for the effect with Nilaparvata lugens and in the assay on Aphis craccivora Koch were 95% and 100%, respectively.
`CCS(=O)(=O)c1cc2nc(C3CC3)n(C)c2nc1-c1nc2cc(C(F)(F)F)cnc2n1C` [Compound I-1]: the mortality at 100 ppm in the assay with Myzus persicae, in the assay with Nilaparvata lugens and in the assay with Aphis craccivora Koch was at least 90% each time. Moreover, the percent effect (mortality or growth inhibition) at 100 ppm in the assay with Plutella xylostella and in the assay with Leucania separate was at least 90% each time. The effect with Aphis craccivora Koch was determined as 100%.
As to `CCS(=O)(=O)c1cc2nc(C3CC3)sc2nc1-c1nc2cc(C(F)(F)F)cnc2n1C` [Compound I-73], the mortality at 100 ppm with Myzus persicae, in the assay on Nilaparvata lugens and in the assay with Aphis craccivora Koch was at least 90% throughout. Moreover, the percent effect (mortality or growth inhibition) at 100 ppm in the assay with Plutella xylostella and in the assay on Leucania separate was at least 90% throughout. In addition, the effect is listed as 100% in the assay with Plutella xylostella, 95% in the assay on Nilaparvata lugens, 100% in the assay with Laphygma exigua and 100% with Aphis craccivora Koch. In the assay with Chilo suppressalis, the mortality at 5 ppm stood at 100%.
Regarding `CCS(=O)(=O)c1cc2sc(C3CC3)nc2nc1-c1nc2cc(C(F)(F)F)cnc2n1C` [Compound I-109], the mortality at 100 ppm in the assay on Myzus persicae, in the assay with Nilaparvata lugens and in the assay on Aphis craccivora Koch was at least 90% throughout. For the same molecule, the percent effect (mortality or growth inhibition) at 100 ppm in the assay with Plutella xylostella and in the assay on Leucania separate was at least 90% in each case. Moreover, the effect is recorded as 100% in the assay with Plutella xylostella, 95% in the assay on Nilaparvata lugens, 100% with Laphygma exigua and 100% with Aphis craccivora Koch. Further, in the assay with Chilo suppressalis, the mortality at 5 ppm is 100%.
